Laboratory results taken from patent publication US20210369721A1, “SUBLINGUAL FORMULATION FOR HYPOTENSION AND SYNCOPE” (priority 2020, published 2021).
Several values for one entry are separate records, joined by “and”; a condition that tells them apart may be missing. Equal entries are not always repeated.

Experiments:
A2 adenosine receptor = conditions: cited from earlier work
[1] = single dose of 200-250 mg, cited from earlier work
blood donors = conditions: 125 or 250 mg; 95% CI 0.21-0.85; p=0.02; cited from earlier work
[2] = Caffeine plasma level after sublingual caffeine+capsaicin in ethanol; format: in vivo, human; conditions: 5 cases; sublingual caffeine 200 mg + capsaicin in ethanol
normal, healthy adults = experiment: Phase I CPC sublingual gel: blood pressure and heart rate; format: in vivo, human; conditions: 15-120 minutes
Procedure: Study Methods: The design was an open label, phase I, dose escalation, pharmacokinetic study of a novel gel formulation of capsaicin, phenylephrine, and caffeine administered sublingually to normal, healthy adults.
Dosing and Administration: The product was expressed as fast as feasible from the oral syringe sublingually. The subject was asked to have the gel reside under the tongue for 1 minute before it was swallowed and the mouth was rinsed with water. Multiple rinses were allowed.
Of the three active components of the sublingual dosage, the dose of phenylephrine was the focus of dose escalation.
Study Drug Administration: The subject were asked to sit in a chair that allowed access to their mouth and subsequent blood sampling and continuous BP and HR monitoring. After 15-minute rest, vital signs were taken pre-dose, and SBP had to be ≤130 mmHg in order for dose to be given. If SBP>130 mmHg, the blood pressure was checked again in 15 minutes. If the repeat measurement had SBP≤130 mmHg, the first dose of CPC was given.
The study nurse delivered the appropriate dose to the subject using an oral syringe sublingually. The subject allowed the gel to reside under the tongue for 1 minute before the gel was swallowed and the mouth was rinsed with water that was swallowed. Multiple rinses were allowed as was water ad lib. […]

VR1receptor = conditions: micro molar range; cited from earlier work
clinical = conditions: human, in vivo
Procedure: Pharmacokinetic Sampling: Blood samples were collected via the venous catheter with appropriate pre- and post-sample flushing. If the indwelling venous catheter patency was lost, the phlebotomist or nurse attempted to replace it, if possible. Separate needle sticks could be done for the blood collection.
Samples were collected in 6 mL heparinized tubes at the following time points: Pre-dose, 30 seconds, 1, 2, 5, 15, 30, 45, 60, 90, 120 min, and 3, 4, 6, 8, 12, 24* hours
The lithium heparin tube and 1 K2EDTA tube (capsaicin sample) were immediately placed on ice or refrigerated. […] All blood samples were centrifuged as soon as possible after clotting in a refrigerated centrifuge. The plasma from each tube was equally distributed between 2 polypropylene tubes, labeled and promptly stored at −80° C. until thawed for analysis.

[3] = test system: healthy subjects and 1 patient with a history of VVS; experiment: Study 2: Capsaicin alone, tilt table testing; format: in vivo, human
Procedure: In a second study, we tested the effect of Capsaicin alone (50 μL Capsaicin 0.5%) on HR and BP in 3 healthy subjects (1 woman and 2 men mean age 35±18 years) and in 1 patient with a history of VVS during tilt table testing (Table 1).

[4] = test system: impending syncope (VVS) patients; conditions: cited from earlier work
[5] = cited from earlier work
impending VVS = conditions: cited from earlier work
[6] = healthy subjects, individual subjects

Q: With `Cn1c(=O)c2c(ncn2C)n(C)c1=O` [Caffeine] as the compound, how does the Affinity (A2 adenosine receptor) read?
A: 9 µM

Q: What about the “Increase in SBP” value ([1]; within 30 minutes) of the same compound?
A: 3-14 mmHg

Q: What about the “Time of maximal increase in SBP” value [1] of the same compound?
A: 60 to 120 min

Q: What about the “RR of occurrence of VVRs versus placebo” value (blood donors) of the same compound?
A: 0.42

Q: What about the “Start of increase in caffeine blood concentration” value [2] of the same compound?
A: 30 s

Q: What about the “Speculated contribution of Caffeine to SBP elevation” value (normal, healthy adults) of the same compound?
A: 1-2 mmHg

Q: Which EC50 (VR1receptor) does the source give for `COc1cc(CNC(=O)CCCC/C=C/C(C)C)ccc1O` [Capsaicin, 8-methyl-N-vanillyl-trans 6-nonenamide] here?
A: […]

Q: And the “Time of peak Capsaicin blood level” value (clinical)?
A: around 15 minutes

Q: And the Symptoms after drug ([3]; 1 patient with VVS)?
A: no

Q: What about the “Time of max SBP increase” value ([3]; 1 patient with VVS) of the same compound?
A: 1 min

Q: And the “Max SBP after drug” value ([3]; 1 patient with VVS, pending syncope YES, SBP at time 0 100)?
A: 120 mmHg

Q: And the “HR after Drug” value ([3]; 1 patient with VVS, HR at time 0 56)?
A: 80 bpm

Q: What about the “SBP after Capsaicin alone, mean” value ([3]; 3 healthy subjects, from a mean of 120±10 mmHg) of the same compound?
A: 155±5 mmHg

Q: What about the “Time of max SBP increase, Mean” value ([3]; Mean of 3 healthy subjects) of the same compound?
A: 1.3 min

Q: And the “HR after Drug, Mean” value ([3]; Mean of 3 healthy subjects, HR at time 0 mean 78)?
A: 96 bpm

Q: And the “Max SBP after drug, Mean” value ([3]; Mean of 3 healthy subjects, SBP at time 0 mean 120)?
A: 155 mmHg

Q: And the “Max SBP after drug” value ([3]; healthy subjects, Capsaicin alone 50 μL 0.5%, individual subjects)?
A: 160 mmHg and 155 mmHg and 150 mmHg

Q: What about the “Effect on SBP” value ([3]; healthy subjects, conclusion) of the same compound?
A: able to increase SBP

Q: What about the “HR after Drug” value [3, 6] of the same compound?
A: 100 bpm and 104 bpm and 85 bpm

Q: What about the Symptoms after drug [3, 6] of the same compound?
A: no

Q: What about the “Time of max SBP increase” value [3, 6] of the same compound?
A: 1 min (2×) and 2 min

Q: And the “Effect on loss of consciousness” value ([3]; one VVS patient, conclusion)?
A: prevent loss of consciousness

Q: And the “Outcome of tilt test” value ([3]; patient with VVS)?
A: experienced only presyncope

Q: And the “SBP after capsaicin alone” value ([3]; patient with VVS, at onset of prodromes, from 100 mmHg)?
A: 120 mmHg

Q: Which results are given for `CNC[C@H](O)c1cccc(O)c1` [PE, phenylephrine]?
A: Effect on vagally-induced bradycardia ([4]; in vivo): unable to counteract the vagally-induced bradycardia; Effect on blood pressure ([4]; intra-atrial bolus 1 mg/1 ml at impending syncope): immediate marked increase in blood pressure; Effect on VVS ([4]; intra-atrial bolus 1 mg/1 ml): interrupted VVS in most patients; Time to effect ([4]; mostly): ≤ 20 s; PE blood concentration in the current study (clinical): 1 to 2 ng/mL; concentration at 15 min (clinical): ~1 ng/mL; Mean increase in SBP ([5]; PE blood concentration of 20 nM, 3 mcg/L or 3 ng/ml): 3 mmHg; Increase in systolic BP, mean ([5]; PE concentration of 9 mcg/L): 11 mmHg; Increase in systolic BP, range ([5]; PE concentration of 9 mcg/L): 6-20 mmHg; Speculated contribution of PE to SBP elevation (normal, healthy adults): 1-2 mmHg

Q: With `CCNCC(O)c1cccc(O)c1` (centres unmarked) [etilefrine] as the compound, how does the “Cases in which impending VVS was aborted” value (impending VVS; intravenous injection, 20% with placebo) read?
A: 87%

Q: And the Time to effect (impending VVS; mostly)?
A: ≤ 20 s
